# Counter-ions that a name gives are not always drawn.
# What was measured:
# [1] = test system: SCC tumors (PDVC57 cells); assay: Intratumoral injection of exatecan in PDVC57 SCC tumors (Example 1, Experiments 1 and 2): tumor outcome; type: in vivo, C57BL/6J mice
# Procedure: (§1) Exatecan mesylate (“EXA”) (DX895If; MedChemExpress #HY-13631A) was dissolved in sterile dH20 (Invitrogen 10977-023) to prepare a 5 mg/mL or a 10 mg/mL stock solution. […] The concentration was confirmed by HPLC and further dilutions prepared as needed in sterile dH2O.
# Control groups received an equal volume of sterile dH2O.
# 16 days post-treatment, when the first vehicle control tumors reached 1 cm in one dimension, half (N=5) of each group was harvested for histology: tumors were measured, ranked by volume (V=(½)(W^2×L)), and every-other one harvested (#1, 3, 5, 7, and 9 were harvested and #2, 4, 6, 8, and 10 were not).
# [2] = pH-dependent exatecan mesylate solubility in phosphate buffers (precipitate rating); type: physicochemical; set-up: key to Precipitate rating (Yes/No): Precipitate rating “Yes” means visible precipitate observed at 10× magnification; “No” means no visible precipitate observed at 10× magnification
# Procedure: Materials and methods A water-based formulation was made containing exatecan mesylate at a concentration of 10 mg/mL exatecan mesylate in water (Invitrogen UltraPure Distilled Water #10977-015). Phosphate buffers A and B were made by dissolving either 1M potassium phosphate monobasic (KH2PO4) for buffer A or 1M potassium phosphate dibasic ([…]) for buffer B in distilled water. Solutions with pH values ranging between 4.3 and 9.6 were prepared by mixing buffer A (pH 4.3) with buffer B (pH 9.6) at pre-determined percentages. A pH meter was used to confirm the pH of the resulting phosphate buffer solutions by dipping the electrode into the solution.
# To determine the pH solubility of the water-based formulation, 5 μL of the 10 mg/mL EXA in DI water was added to 100 μL 1M phosphate buffer at varying pH levels in a 96-well plate to produce a final concentration of […] EXA per milliliter. The solubility tests were conducted at pH 4.30 (0% buffer B), pH 5.6 (10% buffer B), pH 6.1 (20% buffer B), pH 6.4 (30% buffer B), pH 6.7 (40% buffer B), pH 7.0 (50% buffer B), pH 7.2 (60% buffer B), pH 7.5 (70% buffer B), pH 7.8 (80% buffer B), pH 8.2 (90% buffer B) and pH 9.6 (100% buffer B). Precipitation was assessed and images of the precipitate at the bottom of the 96-well plate were taken after 1 hour.
# [3] = Dissolution of exatecan mesylate in sterile dH2O (stock preparation); type: physicochemical
# Procedure: as §1
# [4] = test system: PDVC57 cells (SCC tumors); assay: Single intratumoral injection of water-based exatecan mesylate formulation in mouse model of SCC (Example 3); type: in vivo, C57BL/6J mice
# Procedure: Six-week old female C57BL/6J mice were used in this study.
# PDVC57 cells were developed in, and obtained from, the laboratory of Dr. Allan Balmain (Quintanilla, et al., Carcinogenesis 1991, 12 (10), 1875-1881). Mice were anesthetized with avertin and their flanks shaved. The mice were then given an intradermal injection with of 5 million PDVC57 cells in suspension in 100 μL PBS. A 1 cc syringe fitted with a 27 g needle was used for the intradermal injection.
# Seven days following tumor cell inoculation, the mice were given either a single intratumoral injection of 10 mg/mL exatecan mesylate in ultrapure distilled water (Invitrogen, Catalog #10977-015) or a vehicle injection using a BD insulin syringe (30-gauge×8 mm needle; #328468). The vehicle was invitrogen UltraPure Distilled Water #10977-015. The treatment volume was 0.02 mL.
# Mice were sedated. Calipers were used to measure tumor diameter. Tumor volume was calculated from micrometer measurements using the following formula: […]
# When tumors reached the endpoint, i.e., tumor volume of 1 cm^3, mice were euthanized by isoflurane inhalation and tumors dissected away from subcutaneous tissue. Isolated tumors were bisected along the longest axis, fixed in 10% neutral buffered fonnalin and submitted to Yale Research Pathology for embedding, sectioning, and H&E staining. Resulting slides were scanned using a Zeiss AxioObserver Z1 with TissueGnostics TissueFAXS software. Images were analyzed using Fiji software.
# In a first experiment, 20 mice with tumors ranging in size from 45-85 mm^3 were examined. The group size was 10. Ten of the mice were given a single injection of a water-based formulation containing exatecan mesylate (10 mg/mL), while the other 10 mice received a vehicle injection of ultrapure DI water and served as the control group. For each group (experimental group or control), half of the mice were harvested 16 days post-treatment for histological assessment, the other half were harvested 32 days post-treatment if they had discernible tumors or monitored until day 66 if no palpable tumors were observed.
# [5] = test system: PDVC57 cells (SCC tumors); assay: Single intratumoral injection of water-based exatecan mesylate formulation, followed to endpoint tumor volume 1 cm^3 (Example 4); type: in vivo, C57BL/6J mice
# Procedure: In a second experiment, 15 mice with tumors ranging in size from 50-100 mm^3, calculated as described above, were examined.
# PDVC57 cells were injected into 6-week-old female C57BL/6J mice. Treatment was administered by a single intratumoral injection seven days after tumor cell inoculation. Intratumoral injection was performed using BD insulin syringe (30-gauge×8 mm needle; #328468). The vehicle was Invitrogen UltraPure Distilled Water #10977-015.
# The experimental group received 10 mg/mL exatecan. The treatment volume was 0.02 mL. Ten of the mice were given a single injection of a water-based formulation containing exatecan mesylate while the other 5 mice received a vehicle injection of ultrapure DI water and served as the control group. These mice were observed until the endpoint at which their tumor volume was 1 cm^3. […]
# [6] = test system: PDVC57 cells (SCC tumors); assay: Titrated doses of a single injection of water-based exatecan mesylate formulation on tumor size (Example 5); type: in vivo, C57BL/6J mice
# Procedure: In a third experiment, 15 mice (i.e., five groups each containing three mice) with tumors ranging in size 59-80 mm^3, calculated as described above, were examined. PDVC57 cells were injected into 6-week-old female C57BL/6J mice. Treatment was administered seven days after tumor cell inoculation. Intratumoral injection performed using BD insulin syringe (30-gauge×8 mm needle; #328468). Mice were randomly assigned to one of five groups and were given a single intratumoral injection of either the vehicle (UltraPure Distilled Water, Invitrogen, #10977-015) or one of the following concentrations of the water-based formulation containing exatecan mesylate: 10 mg/mL, 5 mg/mL, 2.5 mg/mL or 1.25 mg/mL for a total treatment volume of 0.02 mL. All the mice were harvested 14 days post treatment for histological assessments.
# [7] = test system: ID8-Luc tumor cells; assay: BNP-111 in vivo efficacy in ID8 ovarian cancer model (IVIS tumor burden); set-up: species or system C57Bl/6 mice; conditions: 2.5 mpk i.p. once weekly x4; day 56
# Procedure: Luciferase expressing ID8-Luc tumor cells were washed twice in sterile PBS, resuspended in sterile PBS and a 1 ml 27 G syringe used to inject 1 million cells intraperitoneally (i.p.) into syngeneic female C57Bl/6 mice.
# [8] = mouse, in vivo
# Procedure: (§2) SCC tumors were established by subcutaneous injection of 5 million PDVC57 cells into the right flank of syngeneic C57BL/6J mice. Seven days later, when tumors ranged from 4.5-5.5 mm in diameter, mice were evenly distributed among the treatment groups (N=5-10 mice/group, see below) and received intratumoral injections of vehicle (dH2O) or exatecan.
# (§3) A 0.5-mL 31 G syringe (BD Insulin Syringe #328468) was used to deliver 0.1 mg or 0.2 mg exatecan in a 20-microliter volume, or 0.4 mg in a 40-microliter volume (because of solubility limitations). Control groups received an equal volume of sterile dH2O. The needle was placed into the tumor and the appropriate volume was slowly injected (approximately over 5 sec). The needle was held in place for 10 seconds after the injection was complete, then slowly removed while maintaining finger pressure on the injection site.
# [9] = test system: SCC tumors (PDVC57 cells); assay: Intratumoral injection of exatecan in PDVC57 SCC tumors (Example 1, Experiments 1 and 2): tumor outcome; type: in vivo, C57BL/6J mice; conditions: EXA 0.2 mg single intratumoral injection; of 6 mice harvested (4 not harvested)
# [10] = Intratumoral injection of exatecan (Example 1): toxicity
# Procedure: as §2, §3
# [11] = 10 mg/mL, 0.02 mL single injection
smiles,measurement,setting,value
"CC[C@@]1(O)C(=O)OCc2c1cc1n(c2=O)Cc2c-1nc1cc(F)c(C)c3c1c2[C@@H](N)CC3 [EXA, Exatecan mesylate]",Mice whose tumor progressed to 1 cm,"[1]; 0.2 mg, the five mice not harvested on day 16",one of the remaining five
same,Efficacy of treatment (summary),[1]; 0.2-mg dose per animal,very effective
same,Tumor incidence,[1]; EXA 0.1 mg x2,57%
same,Tumor incidence (mice),[1]; EXA 0.1 mg x2,4 of 7
same,"Mice remaining (days post-treatment), no palpable tumor","[1]; EXA 0.1 mg x2, day 36",2 (day 36) -
same,Histology (N): mice with tumor,"[1]; EXA 0.1 mg x2, of 5 mice harvested (2 not harvested)",Tumor in 4
same,Tumor incidence,"[1]; EXA 0.2 mg single injection, N=10",20%
same,"Mice remaining (days post-treatment), no palpable tumor","[1]; EXA 0.2 mg single injection, day 53",4 (day 53) -
same,"Mice remaining (days post-treatment), no palpable tumor","[1]; EXA 0.2 mg single injection, day 53, listed as exatecan",four
same,"Mice remaining (days post-treatment), no palpable tumor","[1]; EXA 0.4 mg single injection, day 36",1 (day 36) -
same,Efficacy compared with single 0.2 mg dose,[1]; two doses of 0.1 mg per animal separated by 3 days,less effective
same,pH at which enhanced precipitation and decrease in solubility is shown,[2]; 1M phosphate buffer,≥ 7.12
same,Precipitate rating (Yes/No),"[2]; Control (distilled water), 0% buffer A, 0% buffer B, pH 7",No
same,Onset of precipitation after addition to phosphate buffer,[2]; EXA/DI water mixture added to phosphate buffer,generally immediate
same,Precipitate rating (Yes/No),"[2]; Sample 1: 100% buffer A, 0% buffer B, pH 4.3",No
same,Precipitate rating (Yes/No),"[2]; Sample 2: 90% buffer A, 10% buffer B, pH 5.6",No
same,Precipitate rating (Yes/No),"[2]; Sample 3: 80% buffer A, 20% buffer B, pH 6.1",No
same,Precipitate rating (Yes/No),"[2]; Sample 4: 70% buffer A, 30% buffer B, pH 6.4",No
same,Precipitate rating (Yes/No),"[2]; Sample 5: 60% buffer A, 40% buffer B, pH 6.7",Yes
same,Precipitate rating (Yes/No),"[2]; Sample 6: 50% buffer A, 50% buffer B, pH 7.0",Yes
same,Precipitate rating (Yes/No),"[2]; Sample 7: 40% buffer A, 60% buffer B, pH 7.2",Yes
same,Precipitate rating (Yes/No),"[2]; Sample 8: 30% buffer A, 70% buffer B, pH 7.5",Yes
same,Precipitate rating (Yes/No),"[2]; Sample 9: 20% buffer A, 80% buffer B, pH 7.8",Yes
same,Precipitate rating (Yes/No),"[2]; Sample 10: 10% buffer A, 90% buffer B, pH 8.2",Yes
same,Precipitate rating (Yes/No),"[2]; Sample 11: 0% buffer A, 100% buffer B, pH 9.6",Yes
same,Dissolution in sterile dH2O,[3]; 10 mg/mL stock,warming to 60 °C plus sonication and vortexing were needed
same,Dissolution in sterile dH2O,[3]; at 5 mg/mL,dissolves immediately
same,"Mice remaining (day 66 post-treatment), no palpable tumor",[4]; [11],4 - no
same,Tumor incidence overall,[4]; [11],(20%)
same,Tumor incidence overall (mice),[4]; [11],2 of 10
same,Day 32 harvest for histology: tumor in,"[4]; 10 mg/mL, 0.02 mL single injection, 4 mice not harvested",1 of 1. 4
same,% of mice that eliminated their tumor,"[4]; 10 mg/mL, 0.02 mL single injection, assessed at day 16 and day 66",80%
same,Day 16 harvest for histology: tumor in,"[4]; 10 mg/mL, 0.02 mL single intratumoral injection",1 of 5
same,Histological assessment: mice with no discernible tumor,[4]; 5 mice per group,4 out of 5
same,Inflammation of surrounding tissue compared to vehicle-treated mice,"[4]; single dose, histology",decreased inflammation
same,Tissue damage,"[4]; single dose, histology",minimal tissue damage
same,Mice with tumors that reached endpoint volume (1 cm^3),"[5]; 10 mg/mL, 0.02 mL single injection, through day 77",4 of 10
same,Mantel-Cox log rank test p (survival vs dH2O vehicle),"[5]; 77 days post-treatment, 10 mg/mL, 0.02 mL",< 0.0001
same,Cure,[5]; Day 77 post-treatment,60%
same,Mice remaining with no palpable tumor,[5]; Day 77 post-treatment,6 of the 10
same,Mice with a large tumor (clinical images),"[5]; day 22 post-treatment, 10 mg/mL, 0.02 mL",1 of 10
same,Time at which tumors reached endpoint volume,[5]; the 4 mice that reached 1 cm^3,34-52 days post-treatment
same,Tumor size compared to vehicle,"[6]; 2.5 mg/mL, 0.02 mL, 14 days",almost complete reduction in tumor size
same,Tumor size compared to vehicle,"[6]; 5 mg/mL, 0.02 mL, 14 days",almost complete reduction in tumor size
same,Tumor size compared to 1.25 mg/mL and vehicle,"[6]; 10 mg/mL, 0.02 mL, 14 days",significantly reduced tumors
same,Tumor size compared to vehicle,"[6]; all doses administered (10, 5, 2.5, 1.25 mg/mL; 0.02 mL), 14 days post treatment",reduced tumor size
same,Reduction of tumor burden (photon flux),[7],62.16%
same,Tolerability compared with single 0.2 mg dose,[8],less well tolerated
same,Histology (N): mice with tumor,[9],Tumor in 2
same,Toxicity (summary),[10]; 0.4 mg per animal,lethality
same,Toxicity: number of mice in which lethal,"[10]; EXA 0.1 mg x2 (day 0 and day 3), of 9 mice",Lethal in 2 of
same,Toxicity: number of mice in which lethal,"[10]; EXA 0.4 mg single injection, of 8 mice",Lethal in 7 of
